Data published in PubChem BioAssay (NCI).
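Step 1: Grow cells in 96-well plates. Step 2: Expose to compound for 48 hours at 5 concentrations. Step 3: Interpolate endpoints linearly; if unreached, use highest concentration. The concentration for 50% growth inhibition is given as GI50. The concentration for full growth arrest is given as TGI.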

What was measured:
Assay in all cases: growth of human tumour cells (NCI), 48 h
HCT-15 colon = tested on: HCT-15 colon
HOP-92 NSCLC = tested on: HOP-92 NSCLC
LOX IMVI melanoma = tested on: LOX IMVI melanoma
MDA-MB-435 = tested on: MDA-MB-435
OVCAR-4 ovarian = tested on: OVCAR-4 ovarian
SK-MEL-28 melanoma = tested on: SK-MEL-28 melanoma
SR leukemia = tested on: SR leukemia
UACC-257 melanoma = tested on: UACC-257 melanoma
SF-539 CNS = tested on: SF-539 CNS

SMILES	GI50 (HCT-15 colon) [µM]	TGI (HCT-15 colon) [µM]	GI50 (HOP-92 NSCLC) [µM]	TGI (HOP-92 NSCLC) [µM]	GI50 (LOX IMVI melanoma) [µM]	TGI (LOX IMVI melanoma) [µM]	GI50 (MDA-MB-435) [µM]	TGI (MDA-MB-435) [µM]	GI50 (OVCAR-4 ovarian) [µM]	TGI (OVCAR-4 ovarian) [µM]	GI50 (SK-MEL-28 melanoma) [µM]	TGI (SK-MEL-28 melanoma) [µM]	GI50 (SR leukemia) [µM]	TGI (SR leukemia) [µM]	GI50 (UACC-257 melanoma) [µM]	TGI (UACC-257 melanoma) [µM]	GI50 (SF-539 CNS) [µM]	TGI (SF-539 CNS) [µM]
COc1cc(-c2nc(-c3nnc(-c4ccc(F)c(Cl)c4)o3)c3ccccn23)cc(OC)c1OC	4.55	> 100	1.55	6.26	3.83	> 100	3.09	> 100	–	–	–	–	–	–	–	–	–	–
COc1cc[c]([Sb]([Br])([CH]=C(C)C)([CH]=C(C)C)[CH]=C(C)C)cc1	40.5	> 100	–	–	15.7	> 100	–	–	5.89	> 100	2.98	93.5	4.28	> 100	3.45	> 100	–	–
O=C1OCC2=C1C(c1cccc(C(F)(F)F)c1)c1cc3c(cc1N2CCO)OCO3 (stereo not given)	0.511	> 50	2.03	> 50	2.02	> 50	0.161	0.641	2.49	> 50	4.54	> 50	–	–	> 50	> 50	0.884	2.73
NC(=S)N/N=C1\C(=O)N(CCc2ccccc2)C(=O)C1C(=O)NCCc1ccccc1 (stereo not given)	–	> 100	–	> 100	–	> 100	–	–	–	> 100	–	> 100	–	–	–	> 100	–	> 100
O=C(O)c1c([N+](=O)[O-])cc(C(F)(F)F)cc1[N+](=O)[O-]	–	> 100	–	> 100	–	> 100	–	–	–	> 100	–	> 100	–	> 100	–	> 100	–	> 100
CCCCNC(=O)OCC(COc1ccccc1OC)OC(=O)NCCCC (stereo not given)	–	> 100	–	–	–	> 100	–	–	–	> 100	–	> 100	–	–	–	> 100	–	> 100
COc1ccc(C(=O)Nc2ccc(S(=O)(=O)NCC(=O)O)cc2)cc1	–	> 100	–	> 100	–	> 100	–	–	–	> 100	–	> 100	–	–	–	> 100	–	> 100
COc1ccc2nc3ccccc3c(NCCCCCN(CCCl)CCCl)c2c1	–	–	–	0.719	–	0.376	–	–	–	0.771	–	1.19	–	0.0101	–	–	–	–
O=c1c2cc(Br)ccc2nc(-c2ccccc2)n1NCC1(O)OCC(O)C(O)C1O (stereo not given)	–	> 100	–	–	–	> 100	–	–	–	> 100	–	> 100	–	> 100	–	> 100	–	> 100
CSc1c(S(C)=O)[nH]c2cc(Br)cc(Br)c12 (stereo not given)	–	70.8	–	32.1	–	31.9	–	–	–	–	–	43.4	–	–	–	> 100	–	47.5
CN(C)C(=S)/N=c1\ssc(=S)n1-c1ccccc1	–	28.9	–	34.7	–	–	–	–	–	29.4	–	30.5	–	–	–	29.6	–	30.5
CCCCCCCCCCCCC/C=C1\C[C@H](O)COC1=O	–	32.2	–	24.7	–	–	–	–	–	32.7	–	30.3	–	51.2	–	28.4	–	35.8
Clc1ccccc1C1N2CCCCC2[C@@H]2c3[nH]c4ccccc4c3CCN12 (stereo not given in full)	–	29.9	–	> 100	–	–	–	–	–	44.4	–	34.2	–	–	–	42.2	–	30.9
COc1ccc(OC)c(/C=C/C(=O)C(C)(C)C)c1	–	41.2	–	44.1	–	40.6	–	–	–	49	–	31.8	–	–	–	–	–	38.4
CC1(C(=O)NCCN(CCNC(=O)C2(C)CC3(C)CC(C)(C2)C(=O)NC3=O)CCNC(=O)C2(C)CC3(C)CC(C)(C2)C(=O)NC3=O)CC2(C)CC(C)(C1)C(=O)NC2=O (stereo not given)	–	> 100	–	–	–	–	–	–	–	> 100	–	> 100	–	> 100	–	> 100	–	> 100
CCOC(=O)C1(Br)C(c2ccccc2)NC(=O)N(C2OC(COC(=O)c3ccccc3)C(OC(=O)c3ccccc3)C2OC(=O)c2ccccc2)C1(C)Br (stereo not given)	–	> 50.1	–	69.9	–	> 100	–	–	–	43.4	–	> 83.8	–	–	–	52.4	–	> 100
CCOC(=O)C12CCSC1C1(C#N)C(C#N)=CC2(N=P(c2ccccc2)(c2ccccc2)c2ccccc2)n2c(=O)n(-c3ccccc3)c(=O)n21 (stereo not given)	–	> 100	–	60.9	–	> 100	–	–	–	79.8	–	73.3	–	–	–	94.3	–	> 100
Cc1cc2c(=O)cc(-c3ccc(C(F)(F)F)cc3)oc2c(C(=O)O)c1C	–	> 100	–	–	–	> 100	–	–	–	> 100	–	> 100	–	–	–	> 100	–	> 100
CCOc1ccccc1NC(=O)C(=O)C(C(=O)c1ccc2ccccc2c1)C1OC(=O)c2ccccc21 (stereo not given)	–	33.6	–	38.1	–	29.1	–	–	–	24.6	–	35.5	–	–	–	50.9	–	24.8
O=C(c1ccccn1)c1nc(-c2ccc(Cl)c(Cl)c2)nc2ccc(Cl)cc12	–	> 100	–	–	–	–	–	–	–	> 100	–	> 100	–	–	–	> 100	–	56.4
